Experimental data taken from patent US9993494B2, “Compositions and methods for treating fibrotic disease” (eFFECTOR Therapeutics, Inc., priority 2014, dated 2018).

Test system: normal human lung fibroblasts
Test: Ribosomal profiling: translational efficiency in TGFβ-treated fibroblasts
Format: cell-based
Summary of the method: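 Cells lysed on ice after a cold PBS wash containing cycloheximide. Ribosome-protected fragments and total mRNA were prepared with the ARTseq kit and sequenced by RNA-Seq. Reads were trimmed, mapped to the human genome and counted uniquely over coding regions per gene, with low-count genes excluded before differential translational-efficiency analysis.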

TGFβ
Log2 TE EEF1A1 (ENSG00000156508, 5 replicates): 1.851 | change in translational profile of EEF1A1 caused by TGFβ (ENSG00000156508, Control vs. TGFβ): E (E = <1.5 to 2.5) | Log2 TE NRG1 (ENSG00000157168, 5 replicates): 1.162 | change in translational profile of NRG1 caused by TGFβ (ENSG00000157168, Control vs. TGFβ): D (D = <1.0 to 1.5) | change in translational profile of ADAMTS4 caused by TGFβ (ENSG00000158859, Control vs. TGFβ): D (D = <1.0 to 1.5) | Log2 TE RPL8 (ENSG00000161016, 5 replicates): 1.353 | change in translational profile of RPL8 caused by TGFβ (ENSG00000161016, Control vs. TGFβ): E (E = <1.5 to 2.5) | Log2 TE RPL26 (ENSG00000161970, 5 replicates): 1.655 | change in translational profile of RPL26 caused by TGFβ (ENSG00000161970, Control vs. TGFβ): E (E = <1.5 to 2.5) | Log2 TE RPL29 (ENSG00000162244, 5 replicates): 1.589 | change in translational profile of RPL29 caused by TGFβ (ENSG00000162244, Control vs. TGFβ): E (E = <1.5 to 2.5) | change in translational profile of CAMK2N1 caused by TGFβ (ENSG00000162545, Control vs. TGFβ): C (C = <−1.0 to −1.5) | Log2 TE NFIA (ENSG00000162599, 5 replicates): −1.2934 | Log2 TE ARHGAP25 (ENSG00000163219, 5 replicates): 1.166 | change in translational profile of IGFBP7 caused by TGFβ (ENSG00000163453, Control vs. TGFβ): E (E = <1.5 to 2.5) | Log2 TE RPL22L1 (ENSG00000163584, 5 replicates): 1.012 | change in translational profile of RPL22L1 caused by TGFβ (ENSG00000163584, Control vs. TGFβ): D (D = <1.0 to 1.5) | Log2 TE PTX3 (ENSG00000163661, 5 replicates): −1.576 | Log2 TE RPL9 (ENSG00000163682, 5 replicates): 1.613 | change in translational profile of RPL9 caused by TGFβ (ENSG00000163682, Control vs. TGFβ): E (E = <1.5 to 2.5) | Log2 TE TKT (ENSG00000163931, 5 replicates): 1.142 | Log2 TE GUCY1A3 (ENSG00000164116, 5 replicates): −1.932 | Log2 TE RHOBTB3 (ENSG00000164292, 5 replicates): −1.529 | change in translational profile of RHOBTB3 caused by TGFβ (ENSG00000164292, Control vs. TGFβ): B (B = <−1.5 to −2.5) | Log2 TE TLR3 (ENSG00000164342, 5 replicates): −1.371 | Log2 TE RPS14 (ENSG00000164587, 5 replicates): 1.684 | change in translational profile of HCN1 caused by TGFβ (ENSG00000164588, Control vs. TGFβ): D (D = <1.0 to 1.5) | Log2 TE WBSCR27 (ENSG00000165171, 5 replicates): 1.116 | change in translational profile of RPL36AL caused by TGFβ (ENSG00000165502, Control vs. TGFβ): D (D = <1.0 to 1.5) | Log2 TE RPL27A (ENSG00000166441, 5 replicates): 2.09 | change in translational profile of RPL27A caused by TGFβ (ENSG00000166441, Control vs. TGFβ): F (F = >2.5) | change in translational profile of RP11-382A20.3.1 caused by TGFβ (ENSG00000166503, Control vs. TGFβ): C (C = <−1.0 to −1.5) | change in translational profile of ANKDD1A caused by TGFβ (ENSG00000166839, Control vs. TGFβ): C (C = <−1.0 to −1.5) | Log2 TE RPL13 (ENSG00000167526, 5 replicates): 1.465 | change in translational profile of RPL13 caused by TGFβ (ENSG00000167526, Control vs. TGFβ): E (E = <1.5 to 2.5) | Log2 TE EEF2 (ENSG00000167658, 5 replicates): 2.323 | change in translational profile of EEF2 caused by TGFβ (ENSG00000167658, Control vs. TGFβ): F (F = >2.5) | Log2 TE RPSA (ENSG00000168028, 5 replicates): 1.359 | Log2 TE TET2 (ENSG00000168769, 5 replicates): 1.377 | Log2 TE ZNF608 (ENSG00000168916, 5 replicates): −1.59 | Log2 TE SLC25A6 (ENSG00000169100, 5 replicates): 1.909 | Log2 TE THBS3 (ENSG00000169231, 5 replicates): 1.188 | Log2 TE CA5B (ENSG00000169239, 5 replicates): −1.791 | change in translational profile of CA5B caused by TGFβ (ENSG00000169239, Control vs. TGFβ): B (B = <−1.5 to −2.5) | Log2 TE KIAA1024 (ENSG00000169330, 5 replicates): 2.216 | change in translational profile of KIAA1024 caused by TGFβ (ENSG00000169330, Control vs. TGFβ): F (F = >2.5) | Log2 TE CRTAP (ENSG00000170275, 5 replicates): 1.022 | Log2 TE TMC7 (ENSG00000170537, 5 replicates): 1.745 | Log2 TE MURC (ENSG00000170681, 5 replicates): 3.678 | change in translational profile of MURC caused by TGFβ (ENSG00000170681, Control vs. TGFβ): F (F = >2.5) | change in translational profile of HTRA3 caused by TGFβ (ENSG00000170801, Control vs. TGFβ): C (C = <−1.0 to −1.5) | Log2 TE RPS9 (ENSG00000170889, 5 replicates): 1.6139 | Log2 TE PDGFD (ENSG00000170962, 5 replicates): −1.029 | Log2 TE PDE7B (ENSG00000171408, 5 replicates): −2.782 | change in translational profile of PDE7B caused by TGFβ (ENSG00000171408, Control vs. TGFβ): A (A = <−2.5) | Log2 TE ZNF581 (ENSG00000171425, 5 replicates): 1.45 | Log2 TE LPAR3 (ENSG00000171517, 5 replicates): −2.387 | change in translational profile of LPAR3 caused by TGFβ (ENSG00000171517, Control vs. TGFβ): A (A = <−2.5) | Log2 TE CTPS (ENSG00000171793, 5 replicates): 1.08
